Experimental findings from US11331299B2, “Medicinal use of serrulatane diterpenes” (The University of Sydney, priority 2016, dated 2022) are described below.

The test system of test [1] is HL-60 leukemia cells. The experiment in a line: In vitro cell viability assay (intracellular ATP, 72 hour). The conditions noted are these: HL-60 (TB) (Leukemia); 10 μM. The format is cell-based.
Test [2] concerns the target EZH1/EED/SUZ12 (h) (Homo sapiens, UniProt Q92800). Description: Epigenetic enzyme assay, Methyltransferases (MTs). The format is biochemical. Conditions: read-out: % Inhibition of Control Values.
The target of test [3] is T1, Chemokine CXCR2 (IL-8RB) (Homo sapiens, UniProt P25025).
T1 construct: expressed in transfected cells; host or cells: CHO-K1 cells
T1 sequence (P25025 1-360): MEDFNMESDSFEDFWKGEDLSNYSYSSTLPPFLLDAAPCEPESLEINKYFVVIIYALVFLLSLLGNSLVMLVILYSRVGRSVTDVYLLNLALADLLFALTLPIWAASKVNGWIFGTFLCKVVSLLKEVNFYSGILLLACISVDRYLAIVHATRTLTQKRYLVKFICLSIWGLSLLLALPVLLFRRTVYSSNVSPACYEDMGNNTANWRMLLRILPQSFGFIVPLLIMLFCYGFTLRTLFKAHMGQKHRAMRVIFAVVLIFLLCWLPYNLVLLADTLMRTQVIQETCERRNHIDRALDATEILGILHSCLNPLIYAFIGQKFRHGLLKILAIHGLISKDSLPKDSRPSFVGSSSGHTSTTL
The experiment in a line: Chemokine CXCR2 (IL-8RB) radio ligand binding. The conditions noted are these: assay year 2015. The protocol: (§1) The in vitro pharmacological studies were conducted by Eurofins PanLab (Taiwan) using the parameters shown in Table 13 with respect to appropriate literature references.

Test [4] concerns the target PKBgamma/AKT3(h) (substrate histone H3 full length) (Homo sapiens, UniProt Q9Y243). The experiment in a line: Epigenetic enzyme assay, Kinases. Type of test: biochemical. The conditions noted are these: read-out: % Inhibition of Control Values.
For test [5], the target named is T2, Xanthine Oxidase (Bos taurus, UniProt P80457).
T2 construct: Bovine buttermilk; from tissue; host or cells: bovine buttermilk
Description: Xanthine Oxidase. The format is biochemical, Bovine. Conditions: assay year 2015, read-out: % Control Response. The protocol:
as §1

For test [6], the target named is T3, SMARCA4 (h) bromodomain (Homo sapiens, UniProt P51532).
T3 construct: Bromodomain
The experiment in a line: Epigenetic binding assay, Bromodomain. Conditions: read-out: % Inhibition of Control Specific Binding.

Test [7] has as its system Steroid 5alpha-Reductase. Description: Steroid 5α-Reductase. The format is biochemical, Wistar Rat. The conditions noted are these: 10 μM; assay year 2015. As to the method:
as §1

Test [8] addresses T4, PCAF (h) bromodomain (Homo sapiens, UniProt Q92831).
T4 construct: Bromodomain
T4 sequence (Q92831 723-827 limits assumed): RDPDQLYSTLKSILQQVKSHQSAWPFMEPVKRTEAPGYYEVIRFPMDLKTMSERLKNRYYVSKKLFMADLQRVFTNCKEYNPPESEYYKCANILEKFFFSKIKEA
The experiment in a line: Epigenetic binding assay, Bromodomain. The conditions noted are these: 10 μM; read-out: % Inhibition of Control Specific Binding.

For test [9], the target named is Histamine N-methyltransferase (h) (Homo sapiens, UniProt P50135). Description: Epigenetic enzyme assay, Small molecule methyltransferases. The format is biochemical. The conditions noted are these: read-out: % Inhibition of Control Values.
Test [10] concerns the target T5, HDAC10 (h) (Homo sapiens, UniProt Q969S8).
T5 sequence (Q969S8 1-669): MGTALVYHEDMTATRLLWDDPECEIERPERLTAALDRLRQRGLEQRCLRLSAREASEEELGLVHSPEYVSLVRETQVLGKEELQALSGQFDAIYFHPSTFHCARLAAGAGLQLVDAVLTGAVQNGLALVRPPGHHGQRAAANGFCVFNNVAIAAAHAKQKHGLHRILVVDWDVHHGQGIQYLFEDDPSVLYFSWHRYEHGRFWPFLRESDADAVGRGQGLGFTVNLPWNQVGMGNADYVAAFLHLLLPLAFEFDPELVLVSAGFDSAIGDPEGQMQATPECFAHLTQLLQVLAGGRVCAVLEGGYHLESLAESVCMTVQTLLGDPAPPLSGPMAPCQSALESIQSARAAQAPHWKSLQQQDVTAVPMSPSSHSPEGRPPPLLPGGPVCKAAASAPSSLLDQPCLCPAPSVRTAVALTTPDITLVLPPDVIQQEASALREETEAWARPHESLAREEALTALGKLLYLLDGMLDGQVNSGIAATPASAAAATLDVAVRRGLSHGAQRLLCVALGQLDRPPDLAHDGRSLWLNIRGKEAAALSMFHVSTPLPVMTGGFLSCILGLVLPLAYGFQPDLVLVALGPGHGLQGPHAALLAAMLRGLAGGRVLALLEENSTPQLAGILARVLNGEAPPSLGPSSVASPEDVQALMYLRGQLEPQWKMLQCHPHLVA
The experiment in a line: Epigenetic enzyme assay, Histone deacetylase (HDACs). Type of test: biochemical. The conditions noted are these: read-out: % Inhibition of Control Values.

For test [11], the target named is T6, Phospholipase sPLA2-V (Homo sapiens, UniProt P39877).
T6 construct: host or cells: E. coli
T6 sequence (P39877 21-138): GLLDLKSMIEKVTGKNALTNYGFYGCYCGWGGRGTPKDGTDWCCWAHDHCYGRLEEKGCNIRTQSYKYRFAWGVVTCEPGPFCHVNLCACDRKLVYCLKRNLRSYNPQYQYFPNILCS
Description: Phospholipase sPLA2-V. The conditions noted are these: assay year 2015, read-out: % Control Response. Type of test: biochemical. As to the method: as §1

For test [12], the target named is PRMT8 (h) (Homo sapiens, UniProt Q9NR22). Description: Epigenetic enzyme assay, Methyltransferases (MTs). The format is biochemical. The conditions noted are these: read-out: % Inhibition of Control Values.
In test [13] the test system is H3K27 ac. Description: Cell-based detection methyl modifications. The conditions noted are these: read-out: % Inhibition of Control Values.
In test [14] the target is T7, JMJD2E (h) (Homo sapiens, UniProt B2RXH2).
T7 sequence (B2RXH2 1-506): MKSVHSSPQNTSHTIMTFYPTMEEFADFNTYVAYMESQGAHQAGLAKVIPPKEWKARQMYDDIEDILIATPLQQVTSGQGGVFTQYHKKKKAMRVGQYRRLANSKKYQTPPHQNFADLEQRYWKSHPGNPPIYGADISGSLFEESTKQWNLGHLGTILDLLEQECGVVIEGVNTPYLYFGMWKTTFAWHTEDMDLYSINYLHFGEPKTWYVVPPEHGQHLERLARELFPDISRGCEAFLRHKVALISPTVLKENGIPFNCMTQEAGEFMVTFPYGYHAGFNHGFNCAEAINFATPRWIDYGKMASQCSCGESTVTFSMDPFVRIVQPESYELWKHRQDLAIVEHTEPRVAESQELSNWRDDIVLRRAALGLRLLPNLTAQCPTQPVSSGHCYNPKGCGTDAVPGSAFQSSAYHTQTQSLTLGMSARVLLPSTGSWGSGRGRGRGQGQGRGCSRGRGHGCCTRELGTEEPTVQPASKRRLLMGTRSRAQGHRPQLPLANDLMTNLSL
The experiment in a line: Epigenetic enzyme assay, Demethylases (KDMs). The format is biochemical. Conditions: for inhibition at 10 µM: read-out: % Inhibition of Control Values.

Sequence of PKBgamma/AKT3(h) (substrate histone H3 full length) (Q9Y243 whole entry): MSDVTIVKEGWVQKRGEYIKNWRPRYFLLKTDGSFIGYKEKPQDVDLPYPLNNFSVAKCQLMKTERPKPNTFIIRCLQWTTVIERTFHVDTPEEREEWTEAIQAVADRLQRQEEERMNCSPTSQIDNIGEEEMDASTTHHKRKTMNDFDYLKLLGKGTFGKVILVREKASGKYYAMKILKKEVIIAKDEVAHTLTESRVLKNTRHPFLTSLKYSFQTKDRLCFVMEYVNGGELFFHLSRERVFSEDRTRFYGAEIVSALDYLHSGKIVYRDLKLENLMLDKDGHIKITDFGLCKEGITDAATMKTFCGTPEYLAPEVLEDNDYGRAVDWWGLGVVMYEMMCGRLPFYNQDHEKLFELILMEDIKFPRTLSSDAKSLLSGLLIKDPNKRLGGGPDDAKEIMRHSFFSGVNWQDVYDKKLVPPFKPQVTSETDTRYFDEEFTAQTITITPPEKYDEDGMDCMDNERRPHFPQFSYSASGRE
T2 sequence (P80457 whole entry): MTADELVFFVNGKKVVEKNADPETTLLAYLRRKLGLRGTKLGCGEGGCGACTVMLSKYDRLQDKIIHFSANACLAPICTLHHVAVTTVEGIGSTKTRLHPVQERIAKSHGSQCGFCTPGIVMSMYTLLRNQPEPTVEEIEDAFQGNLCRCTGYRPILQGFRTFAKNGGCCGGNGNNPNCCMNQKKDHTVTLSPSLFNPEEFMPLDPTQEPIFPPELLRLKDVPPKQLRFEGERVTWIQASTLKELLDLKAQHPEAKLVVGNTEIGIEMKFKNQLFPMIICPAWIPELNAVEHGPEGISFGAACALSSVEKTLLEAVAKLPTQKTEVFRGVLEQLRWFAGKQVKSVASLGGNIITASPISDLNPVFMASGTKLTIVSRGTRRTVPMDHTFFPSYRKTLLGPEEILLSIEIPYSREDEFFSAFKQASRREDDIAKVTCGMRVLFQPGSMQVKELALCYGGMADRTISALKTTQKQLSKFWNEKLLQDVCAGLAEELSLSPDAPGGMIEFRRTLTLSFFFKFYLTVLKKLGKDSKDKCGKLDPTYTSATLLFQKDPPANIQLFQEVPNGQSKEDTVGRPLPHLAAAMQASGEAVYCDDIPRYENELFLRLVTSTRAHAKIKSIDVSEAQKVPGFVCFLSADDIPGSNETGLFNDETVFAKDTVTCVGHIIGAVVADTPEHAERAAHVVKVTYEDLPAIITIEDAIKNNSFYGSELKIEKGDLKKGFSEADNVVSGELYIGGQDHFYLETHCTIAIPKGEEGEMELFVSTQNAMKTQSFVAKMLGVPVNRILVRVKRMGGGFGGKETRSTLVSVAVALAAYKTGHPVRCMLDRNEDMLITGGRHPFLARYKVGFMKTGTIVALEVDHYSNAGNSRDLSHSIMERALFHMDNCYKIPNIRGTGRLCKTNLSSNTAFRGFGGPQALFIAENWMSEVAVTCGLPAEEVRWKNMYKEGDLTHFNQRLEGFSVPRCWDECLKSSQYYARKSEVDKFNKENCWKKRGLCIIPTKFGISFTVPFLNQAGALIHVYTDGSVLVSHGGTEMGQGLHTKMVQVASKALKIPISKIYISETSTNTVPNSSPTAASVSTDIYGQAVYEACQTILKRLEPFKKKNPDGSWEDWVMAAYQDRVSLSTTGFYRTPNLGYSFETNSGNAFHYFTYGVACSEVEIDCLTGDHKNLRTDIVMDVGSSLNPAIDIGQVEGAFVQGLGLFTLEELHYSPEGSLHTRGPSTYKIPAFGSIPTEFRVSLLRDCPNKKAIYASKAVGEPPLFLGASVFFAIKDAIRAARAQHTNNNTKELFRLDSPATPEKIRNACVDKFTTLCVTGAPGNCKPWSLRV
Sequence of Histamine N-methyltransferase (h) (P50135 whole entry): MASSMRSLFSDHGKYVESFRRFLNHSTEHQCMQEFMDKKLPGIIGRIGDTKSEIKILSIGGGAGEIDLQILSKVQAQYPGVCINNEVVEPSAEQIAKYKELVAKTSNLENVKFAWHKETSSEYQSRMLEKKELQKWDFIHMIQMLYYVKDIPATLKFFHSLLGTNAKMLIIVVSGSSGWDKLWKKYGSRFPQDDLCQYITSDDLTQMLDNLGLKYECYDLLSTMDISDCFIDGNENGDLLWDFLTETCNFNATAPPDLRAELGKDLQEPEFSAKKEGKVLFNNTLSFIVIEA
Sequence of EZH1/EED/SUZ12 (h) (Q92800 whole entry): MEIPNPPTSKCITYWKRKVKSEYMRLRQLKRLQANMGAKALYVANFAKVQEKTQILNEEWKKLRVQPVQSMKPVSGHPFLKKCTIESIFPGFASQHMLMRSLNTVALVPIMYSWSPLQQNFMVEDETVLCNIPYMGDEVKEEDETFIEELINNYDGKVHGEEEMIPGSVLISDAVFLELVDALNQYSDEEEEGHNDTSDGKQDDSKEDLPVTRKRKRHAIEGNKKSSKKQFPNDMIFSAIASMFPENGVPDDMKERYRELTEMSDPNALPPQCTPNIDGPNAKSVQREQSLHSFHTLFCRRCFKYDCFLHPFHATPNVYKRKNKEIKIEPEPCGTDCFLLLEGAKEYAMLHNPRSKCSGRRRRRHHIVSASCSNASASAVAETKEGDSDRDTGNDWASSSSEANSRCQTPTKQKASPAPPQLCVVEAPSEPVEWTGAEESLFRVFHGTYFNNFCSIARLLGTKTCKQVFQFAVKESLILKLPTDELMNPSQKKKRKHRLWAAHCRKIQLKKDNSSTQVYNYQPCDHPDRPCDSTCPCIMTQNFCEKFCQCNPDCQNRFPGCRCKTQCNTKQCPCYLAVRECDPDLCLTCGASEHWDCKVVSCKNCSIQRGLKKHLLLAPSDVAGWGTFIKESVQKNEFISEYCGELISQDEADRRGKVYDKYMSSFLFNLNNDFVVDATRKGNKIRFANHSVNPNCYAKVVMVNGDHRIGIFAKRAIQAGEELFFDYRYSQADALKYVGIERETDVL
Sequence of EZH1/EED/SUZ12 (h) (O75530 whole entry partner): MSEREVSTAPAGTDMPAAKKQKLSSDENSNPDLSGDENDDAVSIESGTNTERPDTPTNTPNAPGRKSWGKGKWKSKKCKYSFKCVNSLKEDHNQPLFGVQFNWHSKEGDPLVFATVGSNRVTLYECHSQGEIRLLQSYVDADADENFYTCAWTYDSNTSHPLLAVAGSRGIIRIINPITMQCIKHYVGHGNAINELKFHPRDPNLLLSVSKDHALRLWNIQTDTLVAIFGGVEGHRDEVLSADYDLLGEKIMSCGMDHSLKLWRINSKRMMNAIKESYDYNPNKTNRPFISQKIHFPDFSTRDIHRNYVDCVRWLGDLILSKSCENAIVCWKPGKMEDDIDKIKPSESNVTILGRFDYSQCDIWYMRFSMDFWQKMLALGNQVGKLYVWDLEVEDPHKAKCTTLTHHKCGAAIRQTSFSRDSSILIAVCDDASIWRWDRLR
Sequence of EZH1/EED/SUZ12 (h) (Q15022 whole entry partner): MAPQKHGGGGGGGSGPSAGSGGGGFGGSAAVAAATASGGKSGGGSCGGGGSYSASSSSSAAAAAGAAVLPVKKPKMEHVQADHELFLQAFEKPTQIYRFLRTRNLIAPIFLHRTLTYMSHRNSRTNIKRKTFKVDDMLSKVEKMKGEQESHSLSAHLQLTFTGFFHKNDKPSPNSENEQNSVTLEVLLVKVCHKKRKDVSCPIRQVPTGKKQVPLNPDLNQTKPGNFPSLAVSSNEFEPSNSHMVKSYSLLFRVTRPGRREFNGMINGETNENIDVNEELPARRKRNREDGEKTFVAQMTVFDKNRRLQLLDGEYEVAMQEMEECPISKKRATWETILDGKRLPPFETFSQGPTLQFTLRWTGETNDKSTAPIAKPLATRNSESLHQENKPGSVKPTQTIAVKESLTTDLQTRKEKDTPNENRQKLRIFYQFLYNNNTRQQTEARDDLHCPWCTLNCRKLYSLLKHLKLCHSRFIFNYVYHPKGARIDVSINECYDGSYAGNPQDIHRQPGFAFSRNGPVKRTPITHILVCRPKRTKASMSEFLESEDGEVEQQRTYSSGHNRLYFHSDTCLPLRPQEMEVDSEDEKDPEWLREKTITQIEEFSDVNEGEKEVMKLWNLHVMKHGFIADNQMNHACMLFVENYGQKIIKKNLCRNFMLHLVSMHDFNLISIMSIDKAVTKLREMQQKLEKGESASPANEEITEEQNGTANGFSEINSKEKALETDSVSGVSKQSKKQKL
T3 sequence (P51532 1453-1564 limits assumed): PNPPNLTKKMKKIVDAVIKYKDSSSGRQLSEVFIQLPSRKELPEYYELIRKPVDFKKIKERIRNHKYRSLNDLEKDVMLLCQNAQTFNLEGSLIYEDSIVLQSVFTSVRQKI
Sequence of PRMT8 (h) (Q9NR22 whole entry): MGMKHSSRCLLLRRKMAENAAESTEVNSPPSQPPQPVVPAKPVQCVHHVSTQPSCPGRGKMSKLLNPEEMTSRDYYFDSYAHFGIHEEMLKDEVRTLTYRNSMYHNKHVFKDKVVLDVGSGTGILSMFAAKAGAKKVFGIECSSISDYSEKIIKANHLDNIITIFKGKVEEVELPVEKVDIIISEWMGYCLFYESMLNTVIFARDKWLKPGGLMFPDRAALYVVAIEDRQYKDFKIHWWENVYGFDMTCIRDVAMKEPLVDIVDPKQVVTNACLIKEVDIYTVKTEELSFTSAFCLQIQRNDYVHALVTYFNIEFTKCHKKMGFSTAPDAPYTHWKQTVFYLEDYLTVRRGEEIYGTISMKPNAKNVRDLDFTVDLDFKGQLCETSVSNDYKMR

Turning to `CC(C)=CCC[C@H](C)[C@@H]1CC[C@@H](C)c2c1cc(C)c(O)c2O` [Compound 4, 7,8-dihydroxyserrulat-14-ene], in test [1], the “% Cell growth” value was −83%.
`CC(C)=CCC[C@@H]1COc2c(C)cc(O)c3c2[C@H]1CC[C@H]3C` [Compound 3, 5,18-epoxy-8-hydroxyserrulat-14-ene]: the inhibition at 10 µM in test [2] was -12%; in test [4] it was 3%; in test [6], 13%; in test [8], 3%; in test [9], 18%; in test [10] it was 6%. The inhibition at 10 µM in test [12] was -26%; in [13], -11%; in test [14] (10 μM) it was 6%. Further, in test [3], the % control response at 10 µM is 1%. The results for the remaining activity at 10 µM in [5] and in test [11] were 27% and 0%, respectively. Besides, in test [7], the “% Control Response” value came to 3%. For the same compound, the “% Cell growth” value in test [1] is given as 138%.
For the compound `CC(C)=CCC[C@@H]1C(O)Oc2c(C)cc(O)c3c2[C@H]1CC[C@H]3C` (stereo partly drawn) [Compound 2, 5,18-epoxyserrulat-14-en-8,18-diol], the inhibition at 10 µM was 3% in test [2]; -7% in test [4]; 16% in [6]; 16% in test [8]; -2% in test [9]; 3% in [10]. Also, the inhibition at 10 µM in [12] was 24%; in [13] it was -12%; in test [14] (10 μM), 10%. The % control response at 10 µM in [3] was -7%. Further, the remaining activity at 10 µM was 20% in [5] and 3% in test [11]. Also, the “% Control Response” value in [7] is −6%. Moreover, the “% Cell growth” value in test [1] is given as −35%.
For `CC(C)=CCC[C@H](CO)[C@@H]1CC[C@@H](C)c2c1cc(C)c(O)c2O` [Compound 1, 7,8,18-trihydroxyserrulat-14-ene], the inhibition at 10 µM in [2] was -1%; in [4], 5%; in [6], 53%; in test [8] it was 37%; in test [9], 18%; in [10], 1%. The values for the inhibition at 10 µM in test [12], in test [13] and in test [14] (10 μM) were 5%, -16% and 65%, respectively. The % control response at 10 µM in test [3] was 12%. Also, the remaining activity at 10 µM in [5] came to 14%; in [11] it was 4%. For the same compound, in [7], the “% Control Response” value worked out at 2%. The “% Cell growth” value in test [1] is −62%. The “% Inhibition of Control Values” in test [14] (10 μM) is reported as “significant inhibitory activity”. The compound further returned an IC50 in [14] (Table 11, inhibition/concentration-response curve) of 4.7 µM.

The term inhibition denotes the relative decrease from the control value, in per cent. The term IC50 denotes the concentration at which inhibition is half-maximal. A higher IC50 goes with weaker potency in that assay.
